Experimental data published in patent US20250154169A1, “COMPOUNDS AND METHODS FOR MODULATING SPLICING” (REMIX THERAPEUTICS INC., priority 2021, published 2025).

Each compound was assayed on HTT mRNA (assay: Splicing RT-qPCR gene panel, HTT canonical junction (CJ) mRNA). Conditions: Homo sapiens, Tables 4A/4B, read-out: HTT (IC50, decrease in CJ mRNA, gene panel).
Type: cell-based, human
Method in brief: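 A673/K562, 24 h cpd, 11-pt 3-fold from 10 uM, DMSO ≤0.25%. Lysis, direct RT-qPCR of CJ isoform, ≥duplicate. GAPDH/GUSB/PPIA norm, ΔΔCt vs DMSO → RQ → % response.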

IC50 | Compound
1 to 10 µM | Cc1cn2cc(NC(=O)c3ccc(N4CCNCC4)c4cc(C)oc34)cc(F)c2n1 [Compound 142]
1 to 10 µM | Cc1cn2cc(NC(=O)c3ccc(N4CCN(C)CC4)c4cc(C)oc34)cc(F)c2n1 [Compound 189]
0.1 to 1 µM | Cc1cn2cc(NC(=O)c3ccc(N4CCNC(C)C4)c4cc(C)oc34)cc(F)c2n1 (stereo not shown) [Compound 190]
0.1 to 1 µM | Cc1cn2cc(NC(=O)c3ccc(N4CCN(C)C(C)C4)c4cc(C)oc34)cc(F)c2n1 (stereo not shown) [Compound 191]
1 to 10 µM | Cc1cn2cc(NC(=O)c3ccc(N4CCNC(C)(C)C4)c4cc(C)oc34)cc(F)c2n1 [Compound 193]
1 to 10 µM | Cc1cn2cc(NC(=O)c3ccc(N4CCNC5(CC5)C4)c4cc(C)oc34)cc(F)c2n1 [Compound 194]
> 10 µM | Cc1cn2cc(NC(=O)c3ccc(N4CC(C)(C)NC(C)(C)C4)c4cc(C)oc34)cc(F)c2n1 [Compound 195]

More lines, now with the values behind:

Compound | IC50
Cc1cn2nc(NC(=O)c3ccc(C4CCNCC4)c4cc(C)oc34)cc(C)c2n1 [Compound 118] | 1 to 10 µM
Cc1cn2nc(NC(=O)c3ccc(C4CCNCC4)c4ccoc34)cc(C)c2n1 [Compound 119] | 1 to 10 µM
Cc1cn2cc(NC(=O)c3ccc(N4CCNCC4)c4nc(C)oc34)cc(F)c2n1 [Compound 140] | 1 to 10 µM
Cc1cn2cc(NC(=O)c3ccc(N4CCNCC4)c4oc(C)nc34)cc(F)c2n1 [Compound 141] | < 0.1 µM
Cc1cn2cc(NC(=O)c3ccc(N4CCNCC4)c4cn(C)nc34)cc(F)c2n1 [Compound 143, N-{8-fluoro-2-methylimidazo[1,2-a]pyridin-6-yl}-2-methyl-4-(piperazin-1-yl) indazole-7-carboxamide] | < 0.1 µM
Cc1cn2cc(NC(=O)c3ccc(C4CCNCC4)c4cc(C)oc34)cc(F)c2n1 [Compound 145] | 1 to 10 µM
Cc1cn2nc(NC(=O)c3ccc(N4CCNCC4)c4cc(C)oc34)cc(C)c2n1 [Compound 148] | 1 to 10 µM
Cc1cn2cc(NC(=O)c3ccc(C4CCNCC4)c4ccoc34)cc(F)c2n1 [Compound 149] | 1 to 10 µM
CCC1CN(c2ccc(C(=O)Nc3cc(F)c4nc(C)cn4c3)c3oc(C)cc23)CCN1 (stereo not shown) [Compound 192] | 1 to 10 µM
CCNC1CCN(c2ccc(C(=O)Nc3cc(F)c4nc(C)cn4c3)c3oc(C)cc23)CC1 [Compound 196] | 1 to 10 µM
Cc1cn2cc(NC(=O)c3ccc(N4CCC(NC(C)(C)C)CC4)c4cc(C)oc34)cc(F)c2n1 [Compound 197] | > 10 µM
CC1=CC2C(N3CCC(N(C)C)CC3)=CC=C(C(=O)Nc3cc(F)c4nc(C)cn4c3)C2O1 (stereo not shown) [Compound 198] | 1 to 10 µM
Cc1cn2cc(NC(=O)c3ccc(N4CCN5CCCC5C4)c4cc(C)oc34)cc(F)c2n1 (stereo not shown) [Compound 199] | 0.1 to 1 µM
Cc1cn2cc(NC(=O)c3ccc(C4CCNCC4)c4cn(C)nc34)cc(F)c2n1 [Compound 208] | 0.1 to 1 µM
Cc1cc2c(N3CCNCC3)ccc(C(=O)Nc3cc(F)c4cn(C)nc4c3)c2o1 [Compound 217] | > 10 µM
